Experimental data as given in ChEMBL document CHEMBL4004825 (J Med Chem, 2017).
Calls of active or inactive are those of the source. The rule behind the calls is not given here.

Tests used:
[1] = Stability in human whole blood assessed as GST-mediated clearance by measuring half-life at 1 uM by LC-MS/MS analysis; assay type: ADME
[2] = target: T1, Tyrosine-protein kinase JAK3 (Homo sapiens, UniProt P52333); assay: Inhibition of recombinant human GST-tagged cytoplasmic JAK3 catalytic domain (781 to 1124 residues) expressed in baculovirus expression system using FITC-KGGEEEEYFELVKK as substrate in presence of 1 mM ATP by microfluidic assay
T1 sequence (P52333 whole entry): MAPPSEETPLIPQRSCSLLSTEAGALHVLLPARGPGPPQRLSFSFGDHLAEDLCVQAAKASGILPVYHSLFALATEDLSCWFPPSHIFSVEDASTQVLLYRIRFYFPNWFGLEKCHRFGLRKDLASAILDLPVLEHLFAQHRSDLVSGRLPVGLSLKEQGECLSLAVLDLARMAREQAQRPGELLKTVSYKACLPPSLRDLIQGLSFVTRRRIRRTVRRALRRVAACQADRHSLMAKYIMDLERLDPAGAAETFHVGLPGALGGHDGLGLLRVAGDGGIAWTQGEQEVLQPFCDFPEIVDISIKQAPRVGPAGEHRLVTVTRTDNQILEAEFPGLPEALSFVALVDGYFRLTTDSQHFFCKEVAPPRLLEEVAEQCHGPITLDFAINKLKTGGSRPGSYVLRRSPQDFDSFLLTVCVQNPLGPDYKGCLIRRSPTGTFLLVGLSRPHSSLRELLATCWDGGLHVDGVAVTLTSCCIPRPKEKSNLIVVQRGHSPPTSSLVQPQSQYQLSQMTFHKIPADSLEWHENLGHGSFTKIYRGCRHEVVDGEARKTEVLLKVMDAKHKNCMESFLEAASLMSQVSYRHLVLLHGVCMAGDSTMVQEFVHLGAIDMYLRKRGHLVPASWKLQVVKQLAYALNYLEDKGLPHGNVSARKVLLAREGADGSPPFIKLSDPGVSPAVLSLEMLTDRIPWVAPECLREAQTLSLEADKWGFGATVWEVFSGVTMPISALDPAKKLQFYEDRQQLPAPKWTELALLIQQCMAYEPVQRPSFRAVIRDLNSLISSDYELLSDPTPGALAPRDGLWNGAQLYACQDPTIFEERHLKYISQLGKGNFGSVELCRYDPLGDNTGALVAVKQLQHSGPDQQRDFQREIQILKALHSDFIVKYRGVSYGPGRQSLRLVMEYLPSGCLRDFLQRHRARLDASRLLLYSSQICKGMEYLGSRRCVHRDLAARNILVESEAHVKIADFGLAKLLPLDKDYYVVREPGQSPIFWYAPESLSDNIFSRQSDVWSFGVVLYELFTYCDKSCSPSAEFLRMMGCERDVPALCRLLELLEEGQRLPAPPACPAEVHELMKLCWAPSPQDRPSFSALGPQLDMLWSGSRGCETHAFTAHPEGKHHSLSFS

[3] = target: Non-receptor tyrosine-protein kinase TYK2 (Homo sapiens, UniProt P29597); assay: Inhibition of recombinant human His-tagged TYK2 expressed in baculovirus infected sf21 cells using 5FAM-KKSRGDYMTMQID as substrate in presence of 1 mM ATP by microfluidic assay
Chain of Non-receptor tyrosine-protein kinase TYK2 (P29597 whole entry): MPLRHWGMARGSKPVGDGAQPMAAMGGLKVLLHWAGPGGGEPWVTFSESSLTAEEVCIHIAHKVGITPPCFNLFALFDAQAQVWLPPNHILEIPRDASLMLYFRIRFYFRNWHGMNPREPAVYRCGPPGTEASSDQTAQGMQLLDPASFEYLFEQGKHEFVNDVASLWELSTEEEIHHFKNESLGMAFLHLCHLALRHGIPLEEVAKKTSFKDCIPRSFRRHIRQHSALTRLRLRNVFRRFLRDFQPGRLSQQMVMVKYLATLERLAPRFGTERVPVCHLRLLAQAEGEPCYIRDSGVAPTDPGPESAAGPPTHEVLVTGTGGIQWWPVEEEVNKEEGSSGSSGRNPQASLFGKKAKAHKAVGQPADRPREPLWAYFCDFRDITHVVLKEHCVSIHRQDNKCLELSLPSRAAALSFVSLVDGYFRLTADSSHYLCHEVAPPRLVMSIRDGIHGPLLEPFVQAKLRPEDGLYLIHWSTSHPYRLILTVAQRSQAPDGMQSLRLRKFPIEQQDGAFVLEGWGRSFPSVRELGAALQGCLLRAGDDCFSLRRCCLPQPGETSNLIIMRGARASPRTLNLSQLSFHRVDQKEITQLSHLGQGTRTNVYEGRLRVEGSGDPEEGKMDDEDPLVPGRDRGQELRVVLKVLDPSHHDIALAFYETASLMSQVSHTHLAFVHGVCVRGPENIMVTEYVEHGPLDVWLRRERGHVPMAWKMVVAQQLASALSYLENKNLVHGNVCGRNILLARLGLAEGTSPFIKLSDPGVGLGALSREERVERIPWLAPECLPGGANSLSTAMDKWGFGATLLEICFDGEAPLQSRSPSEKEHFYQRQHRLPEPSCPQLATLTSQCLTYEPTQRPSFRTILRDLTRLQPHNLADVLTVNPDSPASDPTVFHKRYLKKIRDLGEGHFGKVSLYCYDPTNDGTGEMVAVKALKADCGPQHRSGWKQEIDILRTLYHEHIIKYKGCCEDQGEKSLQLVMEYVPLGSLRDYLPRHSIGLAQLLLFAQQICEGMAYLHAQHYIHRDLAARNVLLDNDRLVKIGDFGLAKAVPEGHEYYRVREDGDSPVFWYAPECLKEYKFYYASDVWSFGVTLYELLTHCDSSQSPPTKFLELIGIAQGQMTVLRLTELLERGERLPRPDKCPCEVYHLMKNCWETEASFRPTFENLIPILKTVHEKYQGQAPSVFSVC

[4] = target: T1, Tyrosine-protein kinase JAK3; assay: Inhibition of JAK3 in human PBMC assessed as inhibition of IL-15 induced STAT5 phosphorylation preincubated for 75 mins followed by IL-15 addition and measured after 15 mins by Alexa Fluor 647 staining based flow cytometry
[5] = target: Tyrosine-protein kinase JAK2 (Homo sapiens, UniProt O60674); assay: Inhibition of recombinant human GST-tagged cytoplasmic JAK2 catalytic domain (809 to 1153+9 residues) expressed in baculovirus expression system using FITC-KGGEEEEYFELVKK as substrate in presence of 1 mM ATP by microfluidic assay
Chain of Tyrosine-protein kinase JAK2 (O60674 whole entry, the tested form may be a part): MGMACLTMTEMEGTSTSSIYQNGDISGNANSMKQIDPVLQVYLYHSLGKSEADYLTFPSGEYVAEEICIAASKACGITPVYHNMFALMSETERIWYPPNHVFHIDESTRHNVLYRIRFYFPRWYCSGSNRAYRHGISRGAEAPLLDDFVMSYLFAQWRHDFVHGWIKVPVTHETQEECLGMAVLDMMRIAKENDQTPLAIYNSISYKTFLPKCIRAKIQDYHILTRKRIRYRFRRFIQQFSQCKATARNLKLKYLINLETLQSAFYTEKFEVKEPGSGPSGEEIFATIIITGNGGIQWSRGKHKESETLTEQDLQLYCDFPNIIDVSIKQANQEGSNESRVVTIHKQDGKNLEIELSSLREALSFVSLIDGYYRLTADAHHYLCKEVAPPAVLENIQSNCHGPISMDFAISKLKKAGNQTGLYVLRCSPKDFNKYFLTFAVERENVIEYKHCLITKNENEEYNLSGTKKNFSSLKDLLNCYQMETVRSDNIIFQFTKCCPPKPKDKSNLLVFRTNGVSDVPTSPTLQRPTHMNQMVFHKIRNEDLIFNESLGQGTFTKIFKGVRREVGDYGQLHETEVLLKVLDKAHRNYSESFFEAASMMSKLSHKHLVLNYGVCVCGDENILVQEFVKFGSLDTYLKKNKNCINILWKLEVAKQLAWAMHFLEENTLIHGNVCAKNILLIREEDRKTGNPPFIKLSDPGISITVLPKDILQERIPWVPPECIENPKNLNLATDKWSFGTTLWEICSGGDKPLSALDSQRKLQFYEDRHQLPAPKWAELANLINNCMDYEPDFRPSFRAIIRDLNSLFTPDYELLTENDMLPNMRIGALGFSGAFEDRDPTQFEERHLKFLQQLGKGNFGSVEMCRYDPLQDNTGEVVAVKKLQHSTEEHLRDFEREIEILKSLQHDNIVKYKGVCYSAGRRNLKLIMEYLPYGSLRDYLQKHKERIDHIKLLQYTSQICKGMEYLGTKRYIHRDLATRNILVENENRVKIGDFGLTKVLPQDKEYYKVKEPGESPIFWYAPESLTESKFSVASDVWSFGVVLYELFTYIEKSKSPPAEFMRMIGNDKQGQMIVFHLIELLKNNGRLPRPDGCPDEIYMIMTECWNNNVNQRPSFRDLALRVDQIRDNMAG

[6] = target: T1, Tyrosine-protein kinase JAK3; assay: Inhibition of recombinant human GST-tagged cytoplasmic JAK3 catalytic domain (781 to 1124 residues) expressed in baculovirus expression system using FITC-KGGEEEEYFELVKK as substrate in presence of 4 uM ATP by microfluidic assay
[7] = target: T2, Tyrosine-protein kinase JAK1 (Homo sapiens, UniProt P23458); assay: Inhibition of recombinant human GST-tagged cytoplasmic JAK1 catalytic domain (866 to 1154 residues) expressed in baculovirus expression system using 5FAM-KKSRGDYMTMQID as substrate in presence of 40 uM ATP by microfluidic assay
T2 sequence (P23458 whole entry, the tested form may be a part): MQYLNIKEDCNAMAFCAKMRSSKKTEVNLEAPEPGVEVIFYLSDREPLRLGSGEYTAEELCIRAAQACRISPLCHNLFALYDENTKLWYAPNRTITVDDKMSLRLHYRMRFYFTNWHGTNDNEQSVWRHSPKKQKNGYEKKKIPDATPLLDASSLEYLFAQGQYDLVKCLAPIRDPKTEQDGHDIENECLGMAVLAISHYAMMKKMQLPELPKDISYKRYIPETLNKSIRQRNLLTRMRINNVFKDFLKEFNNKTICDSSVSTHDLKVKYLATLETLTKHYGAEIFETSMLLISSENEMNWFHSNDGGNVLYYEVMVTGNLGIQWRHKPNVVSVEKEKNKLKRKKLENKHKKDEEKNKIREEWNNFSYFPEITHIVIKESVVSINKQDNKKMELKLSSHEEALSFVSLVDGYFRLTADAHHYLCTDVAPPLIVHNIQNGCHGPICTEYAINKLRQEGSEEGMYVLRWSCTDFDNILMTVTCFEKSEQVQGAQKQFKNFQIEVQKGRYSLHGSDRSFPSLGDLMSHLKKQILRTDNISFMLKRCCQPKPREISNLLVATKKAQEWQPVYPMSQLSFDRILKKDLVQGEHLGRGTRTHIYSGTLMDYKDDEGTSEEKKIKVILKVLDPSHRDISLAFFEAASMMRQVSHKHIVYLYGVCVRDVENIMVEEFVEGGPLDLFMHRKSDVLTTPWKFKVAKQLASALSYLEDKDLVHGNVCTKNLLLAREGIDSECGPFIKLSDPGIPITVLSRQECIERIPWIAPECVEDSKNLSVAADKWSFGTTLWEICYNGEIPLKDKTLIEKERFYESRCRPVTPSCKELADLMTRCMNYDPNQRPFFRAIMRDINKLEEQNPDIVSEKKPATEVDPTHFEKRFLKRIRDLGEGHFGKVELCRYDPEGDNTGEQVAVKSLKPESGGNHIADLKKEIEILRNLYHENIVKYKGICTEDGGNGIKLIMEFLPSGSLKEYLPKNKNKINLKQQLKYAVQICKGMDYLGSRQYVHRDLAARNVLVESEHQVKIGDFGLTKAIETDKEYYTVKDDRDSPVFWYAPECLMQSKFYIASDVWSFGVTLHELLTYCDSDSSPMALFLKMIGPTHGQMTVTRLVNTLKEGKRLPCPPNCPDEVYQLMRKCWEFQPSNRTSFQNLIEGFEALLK

[8] = target: T2, Tyrosine-protein kinase JAK1; assay: Inhibition of recombinant human GST-tagged cytoplasmic JAK1 catalytic domain (866 to 1154 residues) expressed in baculovirus expression system using 5FAM-KKSRGDYMTMQID as substrate in presence of 1 mM ATP by microfluidic assay
[9] = target: T1, Tyrosine-protein kinase JAK3; assay: Inhibition of JAK3 in human whole blood assessed as inhibition of IL-15 induced STAT5 phosphorylation preincubated for 45 mins followed by IL-15 addition and measured after 15 mins by Alexa Fluor 647 staining based flow cytometric analysis
[10] = test system: Mus musculus; assay: Anti-inflammatory activity in sheep RBC-sensitized BALB/c mouse model of delayed-type hypersensitivity assessed as reduction in right hind foot pad thickness at 30 mg/kg, po administered twice daily for 7 days pretreated for 1 day followed by SRBC challenge and subsequent compound treatment for 6 days measured 24 hrs post SRBC rechallenge on day 6; assay type: functional, organism-based
[11] = Clearance in rat in absence of CYP450 inhibitor ABT; assay type: ADME
[12] = Half-life in human whole blood at 1 uM by LC-MS/MS analysis; assay type: ADME
[13] = Stability in rat liver microsomes; assay type: ADME, microsome; conditions: read-out: Stability
[14] = Clearance in rat in presence of CYP450 inhibitor ABT; assay type: ADME; conditions: with ABT (CYP450 inhibitor)
[15] = Stability in human liver microsomes; assay type: ADME, microsome; conditions: read-out: Stability
[16] = Half-life in Sprague-Dawley rat blood at 1 uM by LC-MS/MS analysis; assay type: ADME, tissue-based
[17] = Permeability in RRCK cells; assay type: ADME, cell-based, Canis lupus familiaris, MDCKII-LE; conditions: dog, MDCK; read-out: permeability
[18] = test system: Mus musculus; assay: Anti-inflammatory activity in po dosed sheep RBC-sensitized BALB/c mouse model of delayed-type hypersensitivity assessed as reduction in right hind foot pad thickness administered once daily for 7 days pretreated for 1 day followed by SRBC challenge and subsequent compound treatment for 6 days measured 24 hrs post SRBC rechallenge on day 6; assay type: functional, organism-based

In the case of C=CC(=O)N1C[C@@H](C)C[C@@H](Nc2ncnc3[nH]ccc23)C1 (single isomer, unassigned), the half-life at 1 µM [1] is reported as > 4.17 h.

With C=CC(=O)Nc1cccc(-c2ncnc3[nH]ccc23)c1 the IC50 [2] was 29 nM, the IC50 [3] was > 10000 nM and the IC50 [4] was 32 nM. For the same molecule, the IC50 [5] was > 10000 nM, the IC50 [6] was 0.3 nM and the IC50 [7] was 966 nM. For the same molecule, the IC50 [8] was 8710 nM and the IC50 [9] was 2280 nM.

For C[C@@H]1CCN(C(=O)CC#N)C[C@@H]1N(C)c1ncnc2[nH]ccc12, the Activity [10] was “Active”.

With C=CC(=O)N1CCC[C@@H](Nc2ncnc3[nH]ccc23)[C@H]1C (racemic) the IC50 [2] was > 1000 nM and the half-life at 1 µM [1] was > 6 h.

In the case of C=CC(=O)N1CC[C@H]2CCN(c3ncnc4[nH]ccc34)[C@H]2C1, the clearance [11] is reported as 109 mL/min/kg, the half-life at 1 µM [12] is reported as 3.2 h and the microsomal CLint [13] is reported as 70 µL/min/mg. The IC50 [3] was > 10000 nM, the clearance [14] was 81 mL/min/kg and the microsomal CLint [15] was 12.2 µL/min/mg. The IC50 [5] was > 10000 nM, the half-life at 1 µM [16] was 2.73 h and the Papp [17] was 20 ×10⁻⁶ cm/s. The IC50 [7] was 984 nM, the IC50 [8] was > 10000 nM and the Activity [18] was “Dose-dependent effect”.

With C=CC(=O)N1CCC[C@@H](N(C)c2ncnc3[nH]ccc23)C1 the IC50 [2] was 3840 nM, the IC50 [3] was > 10000 nM and the IC50 [5] was > 10000 nM. The IC50 [6] was 18 nM, the IC50 [7] was 1150 nM and the IC50 [8] was 7820 nM.

For C=CC(=O)N1CC[C@H](C)[C@@H](Nc2ncnc3[nH]ccc23)C1, the half-life at 1 µM [1] was > 5 h.

With CC(=O)N1CC[C@H]2CCN(c3ncnc4[nH]ccc34)[C@H]2C1 the clearance [11] was 76 mL/min/kg, the microsomal CLint [13] was 25 µL/min/mg and the IC50 [2] was > 10000 nM. The IC50 [3] was > 10000 nM, the clearance [14] was 10 mL/min/kg and the microsomal CLint [15] was < 8 µL/min/mg. The IC50 [5] was > 10000 nM, the IC50 [6] was 372 nM and the Papp [17] was 16 ×10⁻⁶ cm/s. For the same molecule, the IC50 [7] was 863 nM and the IC50 [8] was > 10000 nM.

In the case of C=CC(=O)N1CCC[C@@H](Nc2ncnc3[nH]ccc23)C1, the half-life at 1 µM [12] is reported as 5.53 h, the microsomal CLint [13] is reported as < 15 µL/min/mg and the IC50 [2] is reported as 56 nM. For the same molecule, the IC50 [3] was > 10000 nM, the microsomal CLint [15] was 8 µL/min/mg and the IC50 [4] was 107 nM. For the same molecule, the IC50 [5] was > 10000 nM, the half-life at 1 µM [16] was 1.63 h and the Papp [17] was 8 ×10⁻⁶ cm/s. For the same molecule, the IC50 [7] was 1400 nM, the IC50 [8] was > 10000 nM and the IC50 [9] was 580 nM.

With C=CC(=O)N1CC[C@@H](C)[C@@H](N(C)c2ncnc3[nH]ccc23)C1 the IC50 [2] was 1930 nM, the IC50 [3] was > 10000 nM and the IC50 [5] was 2030 nM. The IC50 [7] was 274 nM and the IC50 [8] was 988 nM.

In the case of C/C=C/C(=O)N1CCC[C@@H](Nc2ncnc3[nH]ccc23)C1, the IC50 [2] is reported as > 10000 nM, the IC50 [3] is reported as > 10000 nM and the IC50 [5] is reported as > 10000 nM. The IC50 [6] was 1610 nM, the IC50 [7] was 2290 nM and the IC50 [8] was > 10000 nM.
